The values that follow come from publication PMC10383271.

For one series, the target named is T1, 15-LOX (Glycine max, UniProt P08170).
T1 sequence (P08170 1-839): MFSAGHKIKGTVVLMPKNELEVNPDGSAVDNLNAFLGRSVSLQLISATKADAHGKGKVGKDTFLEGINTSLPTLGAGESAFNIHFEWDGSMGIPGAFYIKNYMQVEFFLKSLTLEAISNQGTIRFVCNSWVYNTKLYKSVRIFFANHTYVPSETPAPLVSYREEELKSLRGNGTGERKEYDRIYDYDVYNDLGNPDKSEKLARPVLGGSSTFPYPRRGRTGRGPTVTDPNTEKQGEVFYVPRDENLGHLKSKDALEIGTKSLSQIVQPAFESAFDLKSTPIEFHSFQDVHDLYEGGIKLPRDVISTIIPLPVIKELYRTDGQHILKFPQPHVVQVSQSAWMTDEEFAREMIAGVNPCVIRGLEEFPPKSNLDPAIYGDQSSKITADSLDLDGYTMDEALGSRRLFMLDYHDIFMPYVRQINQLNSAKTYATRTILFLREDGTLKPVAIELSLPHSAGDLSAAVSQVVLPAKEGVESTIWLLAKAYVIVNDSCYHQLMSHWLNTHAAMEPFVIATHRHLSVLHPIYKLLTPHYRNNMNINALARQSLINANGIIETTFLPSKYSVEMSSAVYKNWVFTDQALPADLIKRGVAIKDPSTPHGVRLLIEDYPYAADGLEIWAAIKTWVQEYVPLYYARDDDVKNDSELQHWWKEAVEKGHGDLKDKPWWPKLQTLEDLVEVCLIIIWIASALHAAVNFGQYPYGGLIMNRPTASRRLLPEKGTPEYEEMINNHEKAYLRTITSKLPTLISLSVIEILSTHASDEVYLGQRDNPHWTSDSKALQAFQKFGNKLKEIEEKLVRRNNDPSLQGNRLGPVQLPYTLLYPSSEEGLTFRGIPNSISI
Kind of series: 15-LOX inhibition, Cayman's Lipoxygenase Inhibitor Screening Assay Kit.

The structures appear in SMILES notation.

By melting point is commonly meant the temperature of the solid-liquid transition. What is called IC50 is the point on the concentration scale where inhibition reaches its midpoint. As for `Cc1c2c(OCC(=O)N/N=C/c3ccccc3)nn(C)c(=O)c2c(C)n1-c1cccc(Cl)c1` [Compound 5c, N-[(Z/E)-benzylideneamino]-2-[6-(3-chlorophenyl)-3,5,7-trimethyl-4-oxo-pyrrolo[3,4-d]pyridazin-1-yl]oxyacetamide], the melting point was in the range of 273 to 275 °C. The compound also showed an IC50 against 15-LOX of 12.7 ± 0.04 µM.

Regarding `Cc1c2c(OCC(=O)N/N=C/c3ccccc3)nn(C)c(=O)c2c(C)n1-c1ccccc1` [Compound 5b, N-[(Z/E)-benzylideneamino]-2-(3,5,7-trimethyl-4-oxo-6-phenyl-pyrrolo[3,4-d]pyridazin-1-yl)oxy-acetamide], the melting point lay in the range of 274 to 275 °C. The compound further yielded an IC50 at 15-LOX of 13.5 ± 0.02 µM.

Compound `CCCCn1c(C)c2c(OCC(=O)N/N=C/c3ccccc3)nn(C)c(=O)c2c1C` [Compound 5a, N-[(Z/E)-benzylideneamino]-2-(6-butyl-3,5,7-trimethyl-4-oxo-pyrrolo[3,4-d]pyridazin-1-yl)oxy-acetamide] displayed a melting point of 210 to 212 °C. Further, the IC50 against 15-LOX turned out to be 12.9 ± 0.06 µM.
